# Experimental data reported in patent US6528524B2, “Pharmaceutical compositions containing cinchonine dichlorhydrate” (Debiopharm SA, priority 1997, dated 2003).
# Where a name gives a salt, the structure may show the parent alone. Read-outs that look alike come from different tables or passages of the source.
# Assays:
# [1] = Stability of cinchonine dihydrochloride in aqueous solution (NMR spectra day 0 vs day 30); type: physicochemical; conditions: aqueous solution kept at ambient temperature and in the light for 30 days
# Protocol: The ^1H and ^13C spectra were built up using samples of 100 mg and 20 mg respectively in 0.5 ml of deuterated methanol.
# The NMR spectra were obtained using a Bruker DRX 500 spectrometer fitted with a so-called “reversible” sensor.
# The aqueous solution was kept at ambient temperature and in the light for 30 days. After 30 days, the NMR spectra were recorded in the same way as above.
# [2] = In vivo bioavailability / pharmacokinetic study in Beagle dogs; set-up: C20 min: unit not given here; conditions: for C20 min / T1/2 a / half-life: dose 50 mg/kg; for C20 min: blood concentration 20 minutes after administration; for T1/2 a / half-life: absorption; for half-life: Beagle, dog, blood, read-out: T1/2 a
# Protocol: These tests were performed in four “Beagle” dogs, two of which were male and two female.
# Each dog received, on day 1, a dose of 50 mg per kg of cinchonine dihydrochloride and, on day 8, an equivalent dose of cinchonine monohydrochloride. Blood samples were taken at regular intervals after each administration.
# [3] = cited from earlier work
# [4] = Beagle dog F2 (female), dihydrochloride
# [5] = Beagle dog M1 (male), dihydrochloride
# [6] = Beagle dog F1 (female), monohydrochloride
# [7] = Beagle dog F2 (female), monohydrochloride
# [8] = Beagle dog M1 (male), monohydrochloride
# [9] = Beagle dog M2 (male), monohydrochloride
compound,measurement,setting,value
"C=C[C@H]1C[N@@]2CC[C@H]1C[C@@H]2[C@@H](O)c1ccnc2ccccc12 [CDH, cinchonine dihydrochloride]",Stability (NMR spectra on day 0 and day 30),[1]; listed as Cinchonine dihydrochloride,remarkable stability
same,Stability (NMR spectra on day 0 and day 30),[1]; listed as cinchonine dihydrochloride,unchanged
same,C20 min,"[2]; Beagle dog F1 (female), dihydrochloride",2.05
same,T1/2 a,[2]; [4],20.4 s
same,C20 min,[2]; [4],3.68
same,T1/2 a,[2]; [5],15.6 s
same,C20 min,[2]; [5],0.23
same,C20 min,"[2]; Beagle dog M2 (male), dihydrochloride",2.1
same,"absorption time, compared with cinchonine monohydrochloride","[2]; Beagle dogs, 50 mg/kg",greater than that of cinchonine monohydrochloride
same,"blood concentration 20 minutes after administration, compared with cinchonine monohydrochloride","[2]; Beagle dogs, 50 mg/kg",greater than that of cinchonine monohydrochloride
same,half-life,"[2]; female, 50 mg/kg, Beagle dog F1 (female)",6 s
same,half-life,"[2]; male, 50 mg/kg, Beagle dog M2 (male)",23.4 s
"C=C[C@H]1C[N@@]2CC[C@H]1C[C@@H]2[C@@H](O)c1ccnc2ccccc12 [CMH, cinchonine monohydrochloride, reference compound]",T1/2 a,[2]; [6],3 s
same,C20 min,[2]; [6],1.04
same,T1/2 a,[2]; [7],6.6 s
same,C20 min,[2]; [7],1.66
same,T1/2 a,[2]; [8],3.6 s
same,C20 min,[2]; [8],0
same,T1/2 a,[2]; [9],14.4 s
same,C20 min,[2]; [9],0.25
C=C[C@H]1C[N@@]2CC[C@H]1C[C@@H]2[C@@H](O)c1ccnc2ccccc12 [cinchonine],solubility in water,[3],very sparingly soluble in water
